We go through eight compounds from US11632948B2, “Recrystallization inhibitor” (THE UNIVERSITY OF WARWICK, priority 2017, dated 2023).

No end group written: not given here.

Assay [1] is described as follows: Ice recrystallisation inhibition (IRI) SPLAT assay. The note with it: for IRI activity: 30 min at −8° C., relative to PBS control. On the procedure: A series of peptides were tested for IRI activity using a SPLAT assay. Briefly, this involved seeding a large number of small ice crystals, which were annealed for 30 minutes at −8° C., before being photographed. The average crystal size was then measured, relative to a PBS control, with smaller values indicating more IRI activity, FIGS. 3B/1C.
Ice recrystallisation inhibition (IRI) activity was measured using a modified splat assay. A 10 μL sample of polymer dissolved in PBS buffer (pH 7.4) was dropped 1.40 m onto a chilled glass coverslip, resting on a thin aluminium block placed on dry ice. Upon hitting the coverslip, a wafer with diameter of approximately 10 mm and thickness 10 μm was formed instantaneously. The glass coverslip was transferred onto the Linkam cryostage and held at −8° C. under N2 for 30 minutes. Photographs were obtained using an Olympus CX 41 microscope with a UIS-2 20 ×/0.45/∞/0-2/FN22 lens and crossed polarizers (Olympus Ltd, Southend-on-Sea, UK), equipped with a Canon DSLR 500D digital camera. Images were taken of the initial wafer (to ensure that a polycrystalline sample had been obtained) and again after 30 minutes. Image processing was conducting using Image J, which is freely available. In brief, five of the largest ice crystals in the field of view were measured and the single largest length in any axis recorded. The average (mean) of these five measurements was then calculated to find the largest grain dimension along any axis. This was repeated for three individual wafers, and the average (mean) of these three values was calculated to give the mean largest grain size (MLGS). The average value was compared to that of a PBS buffer negative control.

The conditions of assay [2]: from cited references; cited from earlier work.

As to “PGlu10: poly(glutamic acid) 10-mer (SEQ ID NO: 18), computationally modelled”, in assay [1], the IRI activity entry is given as “no IRI activity”.

Take poly(proline): the IRI activity result in assay [1] was “significant IRI activity”. Also, the “IRI activity compared to another polymer” value in assay [1] (comparison) is “more active than poly(hydroxyproline)”.

On to poly(hydroxyproline), for which, in assay [2], the “IRI activity (literature)” value is listed as “potent IRI activity”. On to poly(glutamic acid) [PGlu110], for which the IRI activity result in assay [1] was “no IRI”. Take “Nisin A (ITSISLCTPGCKTGALMGCNMKTATCHCSIHVSK; also: lantibiotic, lanthionine rings and dehydro residues not placed; UniProt P13068 24-57, looked up) [a short antimicrobial peptide]”: the “IRI activity (literature)” value in assay [2] is listed as “pH dependent IRI activity”. For “poly-L-proline mol wt 1,000-10,000 [PPro10-100]”, in assay [1], the IRI activity entry is listed as “potent inhibition”. Same read-out and setting: to `O=C(O)[C@@H]1CCCN1` [proline, L-proline] belongs “no IRI activity”; to “poly(lysine) (KKKKKKKKKKKKKKKKKKKKKKKKKKKKKKKKKKKKKKKKKKKKKKKKKK; Poly(lysine) with 50 Lys residues) [PLys50]”, “no IRI”.
